Source: patent US10160763B2, “WDR5 inhibitors and modulators” (Vanderbilt University, priority 2016, dated 2018)

Each molecule was assayed against WDR5 (Δ23, residues 24-334) (Homo sapiens, UniProt P61964) (assay: biochemical). Settings: Kd (M), FPA-based binding affinity at the WDR5 WIN site; IC50 converted to Kd by modified Cheng-Prusoff equation; average of two experiments.

Row | SMILES | Kd [M]
1 | COc1cc(C(=O)NC(c2cccc(-c3cn4c(n3)CCC4)c2)C(C)C)ccc1C (stereo not drawn) [B220, N-(1-(3-(6,7-Dihydro-5H-pyrrolo[1,2-a]imidazol-2-yl)phenyl)-2-methylpropyl)-3-methoxy-4-methylbenzamide] | 2.04e-07
2 | CN(C)C(=O)CCC(=O)NCc1cccc(-c2cn3c(n2)CCC3)c1 [B124] | 2.25e-07
3 | COc1cc(C(=O)N(Cc2cc(-c3cn4c(n3)CCC4)ccc2N2CCCC2)CC2CC2)ccc1C [B179] | 3.62e-06
4 | CCC(C1CC1)N(Cc1cccc(-c2cn3c(n2)CCC3)c1)C(=O)c1cccc(OC)c1 (stereo not drawn) [B87] | 8.63e-07
5 | CN(Cc1cccc(-c2cn3c(n2)CCC3)c1)C(=O)Nc1cc(Cl)cc(Cl)c1 [B74] | 8.21e-07
6 | O=C(CC12C[C@H]3C[C@@H](C1)C[C@@H](C2)C3)NCc1cccc(-c2cn3c(n2)CCC3)c1 [B107] | 5.6e-08
7 | CC(C)N1CCCC(C(=O)NCc2cc(-c3cn4c(n3)CCC4)ccc2OC2CCC2)C1 (stereo not drawn) [B199] | 6.3e-06
8 | O=C(Cc1ccc(Cl)c(Cl)c1)NCc1cc(-c2cn3c(n2)CCC3)ccc1OCc1ccccc1 [B116] | 2.76e-07
9 | CC(=O)N1CCCC(C(=O)N(Cc2cccc(-c3cn4c(n3)CCC4)c2)CC2CC2)C1 (stereo not drawn) [B58] | 7.9e-07
10 | COc1cccc(NC(=O)NCc2cccc(-c3cn4c(n3)CCC4)c2)c1 [B24] | 2.05e-07
11 | COc1cccc(CCC(=O)NCc2cccc(-c3cn4c(n3)CCC4)c2)c1 [B157] | 9.1e-08
12 | COc1cccc(C(=O)N(Cc2ccccc2)Cc2cccc(-c3cn4c(n3)CCC4)c2)c1 [B35] | 2.43e-07
13 | O=C(Cc1ccc(Cl)c(Cl)c1)NCc1cc(-c2cn3c(n2)CCC3)ccc1N1CCCC1 [B118] | 7.6e-08
14 | NC(C(=O)NCc1cc(-c2cn3c(n2)CCC3)ccc1N1CCOCC1)c1ccccc1 (stereo not drawn) [B218] | 1.79e-07
15 | Cc1ccc(C(=O)NCc2cccc(-c3cn4c(n3)CCC4)c2)cc1C(F)(F)F [B130] | 9.72e-07
16 | CCOc1cccc(C(=O)N(C)Cc2cccc(-c3cn4c(n3)CCC4)c2)c1 [B110] | 1e-09
17 | O=C(Cc1ccc(Cl)nc1)NCc1cccc(-c2cn3c(n2)CCC3)c1 [B135] | 8.7e-08
18 | O=C(/C=C/c1ccccc1)NCc1cccc(-c2cn3c(n2)CCC3)c1 [B12] | 1.19e-06
19 | O=C(NCc1cccc(-c2cn3c(n2)CCC3)c1)Nc1cc(Cl)cc(Cl)c1 [B33] | 3.52e-06
20 | COc1ccc(C(=O)N(CCc2ccccc2)Cc2cccc(-c3cn4c(n3)CCC4)c2)cc1OC [B57] | 4.46e-06
21 | CC(=O)N1CC(CC(=O)NCc2cccc(-c3cn4c(n3)CCC4)c2)C1 [B141] | 1e-08
22 | O=C(CCc1ccccc1)N(Cc1cccc(-c2cn3c(n2)CCC3)c1)CC1CC1 [B19] | 1.82e-06
23 | O=C(Cc1cc(Cl)cc(Cl)c1)N(Cc1cccc(-c2cn3c(n2)CCC3)c1)CC1CC1 [B60, N-(Cyclopropylmethyl)-2-(3,5-dichlorophenyl)-N-(3-(6,7-dihydro-5H-pyrrolo[1,2-a]imidazol-2-yl)benzyl)acetamide] | 2.85e-07

Row | SMILES | Kd [M]
24 | O=C(NCc1cccc(-c2cn3c(n2)CCC3)c1)c1ccc(F)c(F)c1 [B166] | 5.8e-08
25 | COc1cccc(C(=O)N(Cc2cc(-c3cn4c(n3)CCC4)ccc2C)CC2CC2)c1 [B23] | 3.35e-07
26 | COc1ccc(C(=O)N(Cc2cccc(-c3cn4c(n3)CCC4)c2)CC2CC2)cc1OC [B59] | 6.18e-07
27 | COc1ccc(C(=O)N(Cc2cccc(-c3cn4c(n3)CCC4)c2)C(C)c2cccc(Cl)c2)cc1OC (stereo not drawn) [B68] | 3.72e-06
28 | CC(=O)N1CCCC(C(=O)NC(C)c2cccc(-c3cn4c(n3)CCC4)c2)C1 (stereo not drawn) [B209] | 1e-08
29 | COc1cccc(CC(=O)NCc2cccc(-c3cn4c(n3)CCC4)c2)c1 [B88] | 8.9e-07
30 | COc1cccc(C(=O)N(CC2CC2)C(C)c2cccc(-c3cn4c(n3)CCC4)c2)c1 (stereo not drawn) [B191] | 1.85e-06
31 | O=C(Cc1ccc(Cl)c(Cl)c1)NCc1cc(-c2cn3c(n2)CCC3)ccc1N1CCCCC1 [B101] | 2.75e-05
32 | COc1cccc(C(=O)NC(C)c2cccc(-c3cn4c(n3)CCC4)c2)c1 (stereo not drawn) [B205] | 2.3e-08
33 | COC1CCN(c2ccc(-c3cn4c(n3)CCC4)cc2CNC(=O)Cc2ccc(Cl)c(Cl)c2)C1 (stereo not drawn) [B177] | 2.08e-06
34 | O=C(NCc1cccc(-c2cn3c(n2)CCC3)c1)Nc1ccccc1 [B22] | 3.83e-06
35 | O=C(Cc1cccc(Cl)c1Cl)NCc1cccc(-c2cn3c(n2)CCC3)c1 [B149] | 8.75e-07
36 | O=C(CCc1ccccc1)NCc1cccc(-c2cn3c(n2)CCC3)c1 [B13] | 2.3e-06
37 | O=C(Cc1ccc(F)c(Cl)c1)NCc1cc(-c2cn3c(n2)CCC3)ccc1OC1CCC1 [B197] | 2.17e-06
38 | COc1cccc(C(=O)N(Cc2cccc(-c3cn4c(n3)CCC4)c2)C(C)c2cccc(Cl)c2)c1 (stereo not drawn) [B83] | 4.51e-07
39 | CC(C)N(Cc1cccc(-c2cn3c(n2)CCC3)c1)C(=O)Nc1cc(Cl)cc(Cl)c1 [B72] | 3.01e-07
40 | O=C(Cc1cc(C(F)(F)F)cc(C(F)(F)F)c1)NCc1cccc(-c2cn3c(n2)CCC3)c1 [B134] | 4.59e-06
41 | O=C(NCc1cccc(-c2cn3c(n2)CCC3)c1)C1CCCNC1 (stereo not drawn) [B43] | 6.3e-07
42 | O=C(NCc1cccc(-c2cn3c(n2)CCC3)c1)C1CCc2ccccc2C1 (stereo not drawn) [B42] | 5.26e-07
43 | O=C(NCc1cccc(-c2cn3c(n2)CCC3)c1)c1cccc(Cl)c1Cl [B167] | 3.8e-07
44 | CCC(NC(=O)Cc1ccc(F)c(Cl)c1)c1cccc(-c2cn3c(n2)CCC3)c1 (stereo not drawn) [B217] | 3.2e-08
45 | Cn1cc(CC(=O)NCc2cccc(-c3cn4c(n3)CCC4)c2)c2ccccc21 [B121] | 2.78e-05
46 | O=C(CC1CCCCC1)NCc1cccc(-c2cn3c(n2)CCC3)c1 [B20] | 3.63e-06

Further molecules by falling Kd, results first:

Row | Kd [M] | SMILES
47 | 2.96e-05 | Cc1cc(C(=O)N(Cc2cccc(-c3cn4c(n3)CCC4)c2)CC2CC2)ccc1Cl [B44]
48 | 2.71e-05 | O=C(C1CCCNC1)N(Cc1cccc(-c2cn3c(n2)CCC3)c1)CC1CC1 (stereo not drawn) [B48]
49 | 1e-05 | Cc1ccc(-c2ccc(-c3cn4c(n3)CCC4)cc2CNC(=O)Cc2ccc(Cl)c(Cl)c2)cc1 [B163]
50 | 1e-05 | CC(=O)N1CCCC(C(=O)N(Cc2cc(-c3cn4c(n3)CCC4)ccc2OC2CCC2)CC2CC2)C1 (stereo not drawn) [B161]
51 | 6.77e-06 | Cc1ccccc1-c1ccc(-c2cn3c(n2)CCC3)cc1CNC(=O)Cc1ccc(Cl)c(Cl)c1 [B145]
52 | 4.04e-06 | COc1cc(C(=O)N(Cc2cc(-c3cn4c(n3)CCC4)ccc2N2CCOCC2)CC2CC2)ccc1C [B200]
53 | 2.71e-06 | O=C(NCc1ccccc1)NCc1cccc(-c2cn3c(n2)CCC3)c1 [B34]
54 | 1.9e-06 | CC(C)N(Cc1cccc(-c2cn3c(n2)CCC3)c1)C(=O)Cc1cc(Cl)cc(Cl)c1 [B73]
55 | 1.18e-06 | O=C(NCc1cccc(-c2cn3c(n2)CCC3)c1)c1ccc2c(c1)OCO2 [B56]
56 | 8.08e-07 | O=C(NCc1cccc(-c2cn3c(n2)CCC3)c1)c1ccc2c(c1)OCCO2 [B54]
57 | 7.51e-07 | COc1ccc(C(=O)N(Cc2cccc(-c3cn4c(n3)CCC4)c2)Cc2ccc(F)c(F)c2)cc1OC [B63]
58 | 7.24e-07 | COc1cccc(C(=O)N(Cc2cc(C)cc(-c3cn4c(n3)CCC4)c2)CC2CC2)c1 [B28]
59 | 6.12e-07 | CN(Cc1cccc(-c2cn3c(n2)CCC3)c1)C(=O)Cc1cc(Cl)cc(Cl)c1 [B71]
60 | 5.99e-07 | CC(C)(NC(=O)Cc1ccc(F)c(Cl)c1)c1cccc(-c2cn3c(n2)CCC3)c1 [B216]
61 | 5.53e-07 | COc1ccc(C(=O)N(Cc2ccc(C)cc2)Cc2cccc(-c3cn4c(n3)CCC4)c2)cc1OC [B66]
62 | 5.02e-07 | O=C(Cc1ccc(Cl)c(F)c1)NCc1cccc(-c2cn3c(n2)CCC3)c1 [B82]

Row | Kd [M] | SMILES
63 | 4.73e-07 | COc1cccc(C(=O)NCc2cc(-c3cn4c(n3)CCC4)ccc2N2CCCC2)c1 [B114]
64 | 4.15e-07 | COc1ccc(CN(Cc2cccc(-c3cn4c(n3)CCC4)c2)C(=O)c2ccc(OC)c(OC)c2)cc1 [B65]
65 | 3.83e-07 | NC(C(=O)NCc1cc(-c2cn3c(n2)CCC3)ccc1OC1CCC1)c1ccccc1 (stereo not drawn) [B219]
66 | 3.24e-07 | COc1cccc(NC(=O)N(C)Cc2cccc(-c3cn4c(n3)CCC4)c2)c1 [B31]
67 | 3.1e-07 | CCC(=O)N1CCCC(C(=O)NC(C)c2cc(-c3cn4c(n3)CCC4)ccc2OC2CCC2)C1 (stereo not drawn) [B210]
68 | 2.32e-07 | O=C(Cc1ccc(O)c(Cl)c1)NCc1cccc(-c2cn3c(n2)CCC3)c1 [B120]
69 | 2.31e-07 | CC(=O)N1CCCC(C(=O)NCc2cc(-c3cn4c(n3)CCC4)ccc2OC2CCC2)C1 (stereo not drawn) [B164]
70 | 2.2e-07 | O=C(Cc1ccc(Cl)c(Cl)c1)NCc1cc(-c2cn3c(n2)CCC3)ccc1Oc1ccccc1 [B125]
71 | 1.84e-07 | COc1cccc(C(=O)NCc2cc(-c3cn4c(n3)CCC4)ccc2N2CCOCC2)c1 [B139]
72 | 1.59e-07 | COc1cc(C(=O)N(Cc2cc(-c3cn4c(n3)CCC4)ccc2N2CCOCC2)CC2CCCCC2)ccc1C [B198]
73 | 1.55e-07 | CC(C)C(=O)N1CCCC(C(=O)NCc2cccc(-c3cn4c(n3)CCC4)c2)C1 (stereo not drawn) [B185]
74 | 1.05e-07 | O=C(Cc1ccc(F)c(Cl)c1)NCc1cccc(-c2cn3c(n2)CCC3)c1 [B155]
75 | 2.2e-08 | CC(=O)N1CCCC(C(=O)NC(C)c2cc(-c3cn4c(n3)CCC4)ccc2OC2CCC2)C1 (stereo not drawn) [B208]
76 | 1.8e-08 | COc1cccc(C(=O)NCc2cc(-c3cn4c(n3)CCC4)ccc2Oc2ccccc2)c1 [B119]
77 | 1.1e-08 | CCC(=O)N1CCCC(C(=O)NC(C)c2cccc(-c3cn4c(n3)CCC4)c2)C1 (stereo not drawn) [B211]
78 | 3e-09 | CS(=O)(=O)N1CCCC(C(=O)NCc2cccc(-c3cn4c(n3)CCC4)c2)C1 (stereo not drawn) [B186]
